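Interpolation was linear, between the two tested concentrations surrounding the appropriate level; five concentrations were tested over 48 hours in 96-well plates. The concentration for 50% growth inhibition is given as GI50.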 Activity calls are given as the source filed them. Cut-off read from the data, not from the text of the source: active = GI50 up to about 1.1 µM and inactive = higher.
Tests used:
Test in all cases: NCI-60 cell line screen, 48 h
[1] = tested on: DU-145
[2] = tested on: SNB-19
[3] = tested on: TK-10
[4] = tested on: U-251
[5] = tested on: M14
[6] = tested on: SN12C
[7] = tested on: CAKI-1
[8] = tested on: HT-29
[9] = tested on: LOX IMVI
[10] = tested on: K562
[11] = tested on: NCI-H460
[12] = tested on: OVCAR-4
[13] = tested on: PC-3
[14] = tested on: SF-295
[15] = tested on: MOLT-4
[16] = tested on: CCRF-CEM
[17] = tested on: A549
[18] = tested on: A498
[19] = tested on: EKVX
[20] = tested on: OVCAR-5
[21] = tested on: SK-MEL-2
[22] = tested on: NCI-H226
[23] = tested on: 786-0
[24] = tested on: NCI-H522
[25] = tested on: HCT-116
[26] = tested on: BT-549
[27] = tested on: SW-620
[28] = tested on: SF-539
[29] = tested on: ACHN
[30] = tested on: MDA-MB-231
[31] = tested on: OVCAR-3
[32] = tested on: MDA-N
[33] = tested on: HCT-15
[34] = tested on: UACC-62
[35] = tested on: HOP-92
[36] = tested on: HOP-62
[37] = tested on: SK-MEL-28
[38] = tested on: HCC 2998
[39] = tested on: SF-268
[40] = tested on: SK-MEL-5
[41] = tested on: OVCAR-8
[42] = tested on: MDA-MB-435
[43] = tested on: NCI-H23
[44] = tested on: SK-OV-3
[45] = tested on: HL-60
[46] = tested on: KM12
[47] = tested on: RPMI-8226
[48] = tested on: Hs-578T
[49] = tested on: NCI/ADR-RES
[50] = tested on: SR
[51] = tested on: T47D
[52] = tested on: COLO 205
[53] = tested on: IGROV-1
[54] = tested on: Malme-3M
[55] = tested on: RXF 393
[56] = tested on: MCF7
[57] = tested on: UO-31
[58] = tested on: SNB-75
[59] = tested on: UACC-257
[60] = tested on: KM-20L2
[61] = tested on: SNB-78
[62] = tested on: DMS-114

Measured: GI50

O=C(Sc1c(-c2ccccc2)c(=O)n(-c2ccccc2)c(=S)n1-c1ccccc1)c1ccco1
> 89.1 µM: [33]
inactive: [1] > 100 µM | [2] > 100 µM | [3] > 100 µM | [4] > 100 µM | [5] > 100 µM | [6] > 100 µM | [7] > 100 µM | [8] > 100 µM | [9] > 100 µM | [10] 34 µM | [11] > 100 µM | [12] > 100 µM | [13] > 100 µM | [14] > 100 µM | [15] 27.5 µM | [16] 18.7 µM | [17] > 100 µM | [18] > 100 µM | [19] > 100 µM | [20] > 100 µM | [21] > 100 µM | [22] > 100 µM | [23] > 100 µM | [24] > 76.9 µM | [25] > 100 µM | [26] > 100 µM | [27] > 57.5 µM | [28] > 100 µM | [29] > 100 µM | [30] > 100 µM | [31] 99.3 µM | [32] > 90.6 µM | [34] > 76.4 µM | [35] > 52.2 µM | [36] > 100 µM | [37] > 100 µM | [38] > 100 µM | [39] > 100 µM | [40] 97.9 µM | [41] > 100 µM | [42] > 100 µM | [43] > 100 µM | [44] > 100 µM | [45] 21.5 µM | [46] > 100 µM | [47] 33.8 µM | [48] > 73.5 µM | [49] > 100 µM | [50] 29.2 µM | [51] > 100 µM | [52] > 100 µM | [53] > 100 µM | [54] > 69.5 µM | [55] > 100 µM | [56] > 100 µM | [57] > 100 µM | [58] 72.1 µM | [59] > 31.6 µM

Cc1nc2ccccc2nc1-c1ccc(/N=[N+](\[O-])c2ccc(-c3nc4ccccc4nc3C)cc2)cc1
inactive: [1] > 94.4 µM | [2] 48.8 µM | [3] 20.1 µM | [4] 27.5 µM | [5] > 96.2 µM | [6] > 92.7 µM | [7] > 100 µM | [8] > 100 µM | [9] > 100 µM | [10] > 100 µM | [11] > 100 µM | [12] > 100 µM | [13] > 100 µM | [14] 59.6 µM | [15] > 100 µM | [16] > 100 µM | [17] > 100 µM | [18] > 53.2 µM | [19] > 100 µM | [20] > 100 µM | [21] > 68.1 µM | [22] > 74.8 µM | [23] 45.5 µM | [24] > 63.4 µM | [25] > 79.8 µM | [26] > 85.9 µM | [27] > 100 µM | [28] > 50.5 µM | [29] > 55.7 µM | [30] 24.2 µM | [31] > 100 µM | [32] > 100 µM | [34] > 93.5 µM | [35] > 39.5 µM | [36] 23.9 µM | [37] > 100 µM | [38] > 100 µM | [39] 36.6 µM | [40] > 96.4 µM | [41] 50.1 µM | [42] > 100 µM | [43] > 83.4 µM | [44] 30.8 µM | [45] > 100 µM | [46] > 100 µM | [47] > 100 µM | [48] 27.5 µM | [49] > 64.9 µM | [50] > 100 µM | [51] > 100 µM | [52] > 100 µM | [53] > 82.4 µM | [54] 42.4 µM | [55] 28.8 µM | [56] > 100 µM | [57] > 81.3 µM | [58] 21 µM | [59] > 100 µM
> 100 µM: [33]

N#CN1CCC2CC(=O)CCC2C1 (stereo not given)
inactive: [2] > 100 µM | [3] > 100 µM | [4] > 100 µM | [5] > 100 µM | [6] > 100 µM | [7] > 100 µM | [9] > 100 µM | [10] > 100 µM | [12] > 100 µM | [15] > 100 µM | [17] > 100 µM | [60] > 100 µM | [20] > 100 µM | [21] > 100 µM | [22] > 100 µM | [23] > 100 µM | [25] > 100 µM | [27] > 100 µM | [61] > 100 µM | [29] > 100 µM | [31] > 100 µM | [34] > 100 µM | [35] > 100 µM | [37] > 100 µM | [38] > 100 µM | [39] > 100 µM | [40] > 10 µM | [43] > 100 µM | [44] > 100 µM | [45] > 100 µM | [62] > 100 µM | [46] > 100 µM | [50] > 100 µM | [53] > 100 µM | [54] > 100 µM | [55] > 100 µM | [57] > 100 µM | [58] > 100 µM
> 100 µM: [33]

COC(=O)C1(Cc2ccccc2)Cc2ccc3c(c2C1=O)CCC3 (stereo not given)
35 µM: [33]
inactive: [1] > 75.3 µM | [2] 55.2 µM | [3] > 47.5 µM | [4] 36.1 µM | [5] 25.1 µM | [6] 44.4 µM | [7] 9.73 µM | [8] 29 µM | [9] 39.3 µM | [10] 30.6 µM | [11] 60.8 µM | [12] > 29.9 µM | [13] 26.1 µM | [14] > 46.2 µM | [15] 20.6 µM | [16] 26.9 µM | [17] 46.3 µM | [18] 35.4 µM | [19] 13.1 µM | [20] > 63 µM | [21] 18.1 µM | [22] > 55.6 µM | [23] 33.7 µM | [24] 20.8 µM | [25] 30.5 µM | [26] 2.24 µM | [27] > 60.4 µM | [28] > 48.9 µM | [29] 51.4 µM | [30] 33.4 µM | [31] > 49 µM | [32] 26.2 µM | [34] > 36.7 µM | [35] 20.8 µM | [36] > 74.6 µM | [37] > 70.6 µM | [38] 38.1 µM | [39] > 66.5 µM | [40] 18.5 µM | [41] 59.6 µM | [42] 24.9 µM | [43] 32.2 µM | [44] > 80.4 µM | [45] 20.3 µM | [46] 31.8 µM | [47] 25.4 µM | [48] 3.95 µM | [49] 23.7 µM | [50] 28.7 µM | [51] 11.5 µM | [52] 27.8 µM | [53] > 72.9 µM | [54] 14.2 µM | [55] 20.4 µM | [56] 23.1 µM | [57] 18 µM | [58] 22.6 µM | [59] 35.2 µM

CC(C)(C)c1ccc(OCCOc2ccc(C(C)(C)C)cc2NC=O)c(NC=O)c1
3.81 µM: [33]
inactive: [1] 17.9 µM | [2] 18.2 µM | [3] 15.1 µM | [4] 6.82 µM | [5] 5.48 µM | [6] 15 µM | [7] 19.4 µM | [8] 3.08 µM | [9] 4.5 µM | [10] 4.14 µM | [11] 4.01 µM | [12] 7.01 µM | [13] 8.71 µM | [14] 5.5 µM | [15] 2.79 µM | [16] 2.06 µM | [17] 5.73 µM | [18] 15.4 µM | [19] 10.5 µM | [20] 22.4 µM | [21] 14.9 µM | [22] 10.8 µM | [23] 8.17 µM | [24] 6.7 µM | [25] 6.43 µM | [26] 15.6 µM | [27] 4.39 µM | [28] 8.77 µM | [29] 7.78 µM | [30] 11.4 µM | [31] 14.4 µM | [32] 9.12 µM | [34] 12.5 µM | [35] 7 µM | [36] 6.92 µM | [37] 12.3 µM | [38] 5.12 µM | [39] 15.1 µM | [40] 4.13 µM | [41] 11.8 µM | [42] 6.85 µM | [43] 7.11 µM | [44] 20.9 µM | [45] 6.04 µM | [46] 3.77 µM | [47] 2.32 µM | [48] 12.5 µM | [49] 5.68 µM | [50] 11.7 µM | [51] 6.01 µM | [52] 1.94 µM | [53] 11.3 µM | [54] 8.79 µM | [55] 8.77 µM | [56] 4.7 µM | [57] 5.69 µM | [58] 19.3 µM | [59] 5.85 µM

Source: ChEMBL document CHEMBL1201862, “PubChem BioAssay data set” (2004)
